Assay results as given in patent US12441768B2, “Compositions and methods for treating endometriosis” (EndoMet Biosciences, Inc., priority 2018, dated 2025).
Where a SMILES comes first, the peptide text is derived from it.

Target: T1, β-catenin (Homo sapiens, UniProt P35222)
T1 sequence (P35222 1-781): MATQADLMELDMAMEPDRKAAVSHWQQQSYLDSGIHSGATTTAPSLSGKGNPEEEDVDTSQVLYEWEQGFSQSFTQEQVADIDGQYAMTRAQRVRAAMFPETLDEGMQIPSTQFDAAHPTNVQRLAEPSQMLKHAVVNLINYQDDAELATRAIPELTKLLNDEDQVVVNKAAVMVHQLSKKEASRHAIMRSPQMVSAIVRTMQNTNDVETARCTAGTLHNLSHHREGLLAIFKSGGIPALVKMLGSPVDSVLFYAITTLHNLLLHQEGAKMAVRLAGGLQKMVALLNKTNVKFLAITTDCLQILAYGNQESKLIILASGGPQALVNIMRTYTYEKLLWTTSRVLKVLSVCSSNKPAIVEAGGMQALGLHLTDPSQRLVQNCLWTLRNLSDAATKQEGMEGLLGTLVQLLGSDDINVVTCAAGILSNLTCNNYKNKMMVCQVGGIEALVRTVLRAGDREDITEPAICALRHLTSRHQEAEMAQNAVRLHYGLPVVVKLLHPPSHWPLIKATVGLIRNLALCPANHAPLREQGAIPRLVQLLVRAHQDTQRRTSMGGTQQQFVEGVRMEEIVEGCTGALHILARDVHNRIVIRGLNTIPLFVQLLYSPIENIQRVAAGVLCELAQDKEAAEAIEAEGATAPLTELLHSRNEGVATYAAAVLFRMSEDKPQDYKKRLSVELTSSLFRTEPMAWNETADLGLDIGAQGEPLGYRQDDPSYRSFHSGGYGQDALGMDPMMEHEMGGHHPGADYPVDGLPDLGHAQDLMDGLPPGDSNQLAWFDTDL
Experiment: KD50 measurement using competitive fluorescence polarization (FP) with labelled TCF4
Assay type: binding
Details: fluorescence polarization, β-catenin; for Kd: read-out: β-Cat FP KD
Text: Fluorescence polarization (FP) is another method used to analyze protein-ligand interactions. This methodology measures the change in fluorescence light emitted by a labelled compound free vs. conjugated to another compound in solution. Upon binding of the fluorescent molecule to a complex, polarization increases because of limited rotation of the fluorescent tracer. Competitive FP is often utilized in drug screens as it is formatted for high throughput screens in a plate format. This immunoassay is performed by introducing a non-conjugated drug to compete for binding to the labelled competitor-ligand complex, leading to a reduction in polarization. TCF4 protein is utilized for the competitive assay as (1) this protein influences the full activation of the Wnt pathway and (2) shares homology with the β-catenin inhibitors. Exemplary methodology is described in Example 13. Data were analyzed and plotted in Microsoft Excel (Microsoft, Redmond, WA).
5 nM of labelled TCF4 protein was added to solution of 100 nM of β-catenin and incubated at room temperature in 96-well plates (Greiner 96 Flat transparent plates, Millipore Sigma, Carlsbad CA). Varying concentrations of β-catenin inhibitor candidate (SEQ ID NO: 404) were then added in a series of serial dilutions from 10 nM to 30 uM of inhibitor in different wells of the plate. The fluorescence polarization was read by Infinite M1000 (Tecan, Baldwin Park CA) at excitation wavelength of 470 nm and measured at emission wavelength of 520 nm. […] The experiments were performed three times and data were analyzed and plotted in Microsoft Excel (Microsoft, Redmond, WA).

Row | β-Cat FP Hill slope | Kd [µM] | SMILES
1 | – | 1 to 10 | CC[C@H](C)[C@@H]1NC(=O)[C@H](CC(C)C)NC(=O)[C@H](Cc2ccccc2)NC(=O)[C@H](Cc2c[nH]c3ccccc23)NC(=O)CCCCCCCCCNC(=O)[C@H](Cc2c[nH]c3ccccc23)NC(=O)[C@H](C)NC(=O)[C@H](CS)NC1=O [compound 250] (HELM PEPTIDE1{A.W.[O=C(CCCCCCCCCN[*:1])[*:2]].W.F.L.I.C}$PEPTIDE1,PEPTIDE1,1:R1-8:R2$$$V2.0)
2 | – | > 30 | CC[C@H](C)[C@@H]1NC(=O)[C@H](CC(C)C)NC(=O)[C@@H](N)CCCCNC(=O)C[C@@H](C(=O)O)NC(=O)[C@H](Cc2c[nH]c3ccccc23)NC(=O)[C@H](Cc2ccccc2)NC(=O)[C@H](C)NC1=O [compound 251] (HELM PEPTIDE1{K.L.I.A.F.W.D}$PEPTIDE1,PEPTIDE1,1:R3-7:R3$$$V2.0)
3 | 0.7 | 1 to 10 | CC[C@H](C)[C@H](NC(=O)[C@H](CC(C)C)NC(=O)[C@@H](NC(=O)[C@@H](N)Cc1c[nH]c2ccccc12)[C@@H](C)CC)C(=O)N[C@@H](C)C(=O)N[C@@H](Cc1ccccc1)C(=O)N[C@@H](Cc1c[nH]c2ccccc12)C(=O)NCC(=O)O [compound 265] (H-WILIAFWG-OH)
4 | – | > 30 | CC[C@H](C)[C@H](NC(=O)[C@H](CC(=O)O)NC(=O)[C@H](CCCNC(=N)N)NC(=O)[C@H](CC(C)C)NC(=O)[C@@H](NC(=O)[C@H](CCC(N)=O)NC(=O)[C@H](CC(C)C)NC(=O)[C@H](CO)NC(=O)[C@H](CCCNC(=N)N)NC(=O)[C@H](CCC(=O)O)NC(=O)[C@H](CCCNC(=N)N)NC(=O)[C@H](Cc1c[nH]cn1)NC(=O)[C@H](CCC(=O)O)NC(=O)[C@H](CC(C)C)NC(=O)[C@H](CCC(N)=O)NC(=O)[C@H](CCC(=O)O)NC(=O)[C@H](CCC(N)=O)NC(=O)[C@H](CO)NC(=O)[C@H](CC(C)C)NC(=O)CNC(=O)[C@H](CC(=O)O)NC(=O)[C@@H]1CCCN1C(=O)[C@H](CC(N)=O)NC(C)=O)[C@@H](C)O)C(=O)N[C@@H](CCC(N)=O)C(=O)N[C@@H](CCCNC(=N)N)C(=O)N[C@@H](CCSC)C(=O)N[C@@H](CC(C)C)C(=O)N[C@@H](Cc1ccccc1)C(=O)N1CCC[C@H]1C(=O)N[C@@H](CC(=O)O)C(=O)N[C@@H](CCC(=O)O)C(=O)N[C@@H](CCCCN)C(=O)N[C@@H](CCC(=O)O)C(=O)N[C@@H](Cc1ccccc1)C(=O)N[C@H](C(=O)NCCC(=O)NCCC(=O)N[C@@H](CCCCN)C(N)=O)[C@@H](C)O [compound 270]
5 | 0.84 | 1 to 10 | CC[C@H](C)[C@@H]1NC(=O)[C@H](CC(C)C)NC(=O)[C@H](Cc2ccccc2)NC(=O)[C@H](Cc2c[nH]c3ccccc23)NC(=O)[C@@H](N)CCCCNC(=O)CC[C@@H](C(=O)NCC(=O)O)NC(=O)[C@H](Cc2c[nH]c3ccccc23)NC(=O)[C@H](Cc2ccccc2)NC(=O)[C@H](CS)NC1=O [compound 272] (HELM PEPTIDE1{K.W.F.L.I.C.F.W.E.G}$PEPTIDE1,PEPTIDE1,1:R3-9:R3$$$V2.0)
6 | 2.2 | < 0.4 | CC[C@H](C)[C@H](NC(=O)[C@H](CC(C)C)NC(=O)[C@H](Cc1ccccc1)NC(=O)[C@H](Cc1c[nH]c2ccccc12)NC(=O)[C@H](CCSC)NC(C)=O)C(=O)N[C@@H](C)C(=O)N[C@@H](Cc1ccccc1)C(=O)N[C@@H](Cc1c[nH]c2ccccc12)C(=O)NCC(=O)O [compound 274] (Ac-MWFLIAFWG-OH)

Continued, compound first:

Row | SMILES | β-Cat FP Hill slope | Kd [µM]
7 | CC[C@H](C)[C@@H]1NC(=O)[C@H](CC(C)C)NC(=O)[C@H](Cc2ccccc2)NC(=O)[C@H](Cc2c[nH]c3ccccc23)NC(=O)[C@@H](N)CCCCNC(=O)CCCCCNC(=O)C[C@@H](C(=O)O)NC(=O)[C@H](Cc2c[nH]c3ccccc23)NC(=O)[C@H](C)NC(=O)[C@H](CS)NC1=O [compound 249] (HELM PEPTIDE1{K.W.F.L.I.C.A.W.[O=C(O)[C@H](CC(=O)[*:2])N[*:1]].[O=C(CCCCCN[*:1])[*:2]]}$PEPTIDE1,PEPTIDE1,1:R3-10:R2$$$V2.0) | 0.92 | 0.4 to 1
8 | CC[C@H](C)[C@@H]1NC(=O)[C@H](CC(C)C)NC(=O)[C@@H](NC(C)=O)CCCCNC(=O)C[C@@H](C(=O)O)NC(=O)[C@H](Cc2c[nH]c3ccccc23)NC(=O)[C@H](Cc2ccccc2)NC(=O)[C@H](C)NC1=O [compound 252] (HELM PEPTIDE1{[ac].K.L.I.A.F.W.D}$PEPTIDE1,PEPTIDE1,2:R3-8:R3$$$V2.0) | – | > 30
9 | CC[C@H](C)[C@@H]1NC(=O)[C@H](CC(C)C)NC(=O)[C@H](Cc2ccccc2)NC(=O)[C@@H](N)CCCCNC(=O)C[C@@H](C(=O)O)NC(=O)[C@H](Cc2c[nH]c3ccccc23)NC(=O)[C@H](Cc2ccccc2)NC(=O)[C@H](C)NC1=O [compound 253] (HELM PEPTIDE1{K.F.L.I.A.F.W.D}$PEPTIDE1,PEPTIDE1,1:R3-8:R3$$$V2.0) | – | > 30
10 | CC[C@H](C)[C@@H]1NC(=O)[C@H](CC(C)C)NC(=O)[C@H](Cc2ccccc2)NC(=O)[C@@H](NC(C)=O)CCCCNC(=O)C[C@@H](C(=O)O)NC(=O)[C@H](Cc2c[nH]c3ccccc23)NC(=O)[C@H](Cc2ccccc2)NC(=O)[C@H](C)NC1=O [compound 254] (HELM PEPTIDE1{[ac].K.F.L.I.A.F.W.D}$PEPTIDE1,PEPTIDE1,2:R3-9:R3$$$V2.0) | – | > 30
11 | CC[C@H](C)[C@@H]1NC(=O)[C@H](CC(C)C)NC(=O)[C@H](CC2CCCCC2)NC(=O)[C@H](Cc2c[nH]c3ccccc23)NC(=O)[C@@H](NC(C)=O)CCCCNC(=O)C[C@@H](C(=O)O)NC(=O)[C@H](Cc2c[nH]c3ccccc23)NC(=O)[C@H](C)NC(=O)[C@H](CO)NC1=O [compound 255] (HELM PEPTIDE1{[ac].K.W.[Cha].L.I.S.A.W.D}$PEPTIDE1,PEPTIDE1,2:R3-10:R3$$$V2.0) | – | > 30
12 | CC[C@H](C)[C@@H]1NC(=O)[C@H](CC(C)C)NC(=O)[C@H](Cc2ccccc2)NC(=O)[C@H](Cc2c[nH]c3ccccc23)NC(=O)[C@@H](N)CCCCNC(=O)CCNC(=O)C[C@@H](C(=O)O)NC(=O)[C@H](Cc2c[nH]c3ccccc23)NC(=O)[C@H](C)NC(=O)[C@H](CS)NC1=O [compound 260] (HELM PEPTIDE1{K.W.F.L.I.C.A.W.[O=C(O)[C@H](CC(=O)[*:2])N[*:1]].[bAla]}$PEPTIDE1,PEPTIDE1,1:R3-10:R2$$$V2.0) | 1.53 | 1 to 10
13 | CC[C@H](C)[C@H](NC(=O)[C@H](CC(C)C)NC(=O)[C@@H](NC(=O)[C@H](Cc1c[nH]c2ccccc12)NC(C)=O)[C@@H](C)CC)C(=O)N[C@@H](C)C(=O)N[C@@H](Cc1ccccc1)C(=O)N[C@@H](Cc1c[nH]c2ccccc12)C(=O)NCC(=O)O [compound 263] (Ac-WILIAFWG-OH) | 3 | 0.4 to 1
14 | CC[C@H](C)[C@H](NC(=O)[C@H](CC(C)C)NC(=O)[C@@H](NC(=O)[C@H](Cc1c[nH]c2ccccc12)NC(=O)[C@H](CCSC)N(C)C)[C@@H](C)CC)C(=O)N[C@@H](CO)C(=O)N[C@@H](Cc1ccccc1)C(=O)N[C@@H](Cc1c[nH]c2ccccc12)C(=O)NCC(=O)O [compound 264] (HELM PEPTIDE1{[CSCC[C@@H](C(=O)[*:2])N(C)C].W.I.L.I.S.F.W.G}$$$$V2.0) | 0.7 | 1 to 10
15 | CC[C@H](C)[C@@H]1NC(=O)[C@H](CC(C)C)NC(=O)[C@H](Cc2ccc(O)cc2)NC(=O)[C@H](Cc2c[nH]c3ccccc23)NC(=O)[C@H](CCSC)NC(=O)[C@H](CCCNC(=N)N)NC(=O)[C@H](CO)NC(=O)[C@@H](N)CCCNC(=O)[C@H](Cc2c[nH]c3ccccc23)NC(=O)[C@H](Cc2ccccc2)NC(=O)[C@H](CO)NC1=O [compound 277] (HELM PEPTIDE1{[Orn].S.R.M.W.Y.L.I.S.F.W}$PEPTIDE1,PEPTIDE1,1:R3-11:R2$$$V2.0) | 0.7 | > 30
16 | CC[C@H](C)[C@@H]1NC(=O)[C@H](CC(C)C)NC(=O)[C@H](Cc2ccccc2)NC(=O)[C@H](Cc2c[nH]c3ccccc23)NC(=O)[C@@H](N)CCCCNC(=O)CN(CC(=O)O)C(=O)[C@H](Cc2c[nH]c3ccccc23)NC(=O)[C@H](C)NC(=O)[C@H](CS)NC1=O [compound 284] | 0.7 | –
